Measurements published in ChEMBL document CHEMBL1201862, “PubChem BioAssay data set” (2004).
The source made the active and inactive calls.

Tests used:
[1] = cells; assay type: functional
[2] = target: Cytochrome P450 2C9 (Homo sapiens, UniProt P11712)
[3] = target: T1, Leucine aminopeptidase (Plasmodium falciparum 3D7, UniProt Q8IL11); experiment: P. falciparum M17LAP inhibitors, primary screen, biochemical, fluorogenic H-Leu-NHMec substrate, 1536-well (AID 1619); assay type: functional
T1 sequence (Q8IL11 whole entry): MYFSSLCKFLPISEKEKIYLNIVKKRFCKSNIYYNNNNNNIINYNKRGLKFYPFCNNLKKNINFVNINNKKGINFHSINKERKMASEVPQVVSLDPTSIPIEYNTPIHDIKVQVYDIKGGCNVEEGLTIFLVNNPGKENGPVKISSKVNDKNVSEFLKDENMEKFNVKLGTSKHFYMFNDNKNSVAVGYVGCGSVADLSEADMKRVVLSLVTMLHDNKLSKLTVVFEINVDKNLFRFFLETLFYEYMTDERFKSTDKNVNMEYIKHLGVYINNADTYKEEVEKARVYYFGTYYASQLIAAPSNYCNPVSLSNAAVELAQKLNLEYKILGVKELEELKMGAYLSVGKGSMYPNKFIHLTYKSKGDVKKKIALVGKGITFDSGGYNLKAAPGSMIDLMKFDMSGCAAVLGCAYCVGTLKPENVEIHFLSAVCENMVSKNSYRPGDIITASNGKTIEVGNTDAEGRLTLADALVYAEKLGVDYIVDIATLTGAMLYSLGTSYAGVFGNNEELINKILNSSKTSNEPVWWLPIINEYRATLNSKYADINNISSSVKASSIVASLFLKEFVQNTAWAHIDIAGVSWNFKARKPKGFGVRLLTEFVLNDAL

[4] = Luminescence Cell-Based Dose Confirmation HTS to Identify Inhibitors of Platelet Dense Granule Release. [Related pubchem assays: 1663 (Primary HTS), 1678 (Summary of Project)]; assay type: functional
[5] = fluconazole-exposed Candida albicans growth modulators – fluorescence, retest, confirmation (AID 2467); assay type: functional, cell-based
[6] = NIH-3T3 fibroblast cytotoxicity, dose response, cytotoxicity control, cell-based, fluorescence, Alamar Blue, secondary assay (AID 2327); assay type: functional;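 further: NIH-3T3 mouse fibroblasts cultured with fluconazole at 8 µg/mL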
[7] = target: Cytochrome P450 2D6 (Homo sapiens, UniProt P10635);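 further: CYP2D6 member of a cytochrome P450 panel assay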
Sequence of Cytochrome P450 2D6 (P10635 whole entry): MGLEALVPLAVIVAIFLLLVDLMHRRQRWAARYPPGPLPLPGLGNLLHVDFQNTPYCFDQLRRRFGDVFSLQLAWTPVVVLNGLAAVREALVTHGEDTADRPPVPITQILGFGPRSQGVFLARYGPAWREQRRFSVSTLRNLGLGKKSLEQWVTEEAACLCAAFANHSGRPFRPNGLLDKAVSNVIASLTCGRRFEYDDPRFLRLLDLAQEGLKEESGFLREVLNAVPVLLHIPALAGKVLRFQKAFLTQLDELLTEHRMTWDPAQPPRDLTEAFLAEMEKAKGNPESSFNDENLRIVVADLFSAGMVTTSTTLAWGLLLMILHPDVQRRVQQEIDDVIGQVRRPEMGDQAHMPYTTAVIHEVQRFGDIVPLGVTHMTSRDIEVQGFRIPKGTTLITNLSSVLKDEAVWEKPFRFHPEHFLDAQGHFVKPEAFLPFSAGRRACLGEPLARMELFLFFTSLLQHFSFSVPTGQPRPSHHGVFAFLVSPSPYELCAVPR

[8] = target: Luciferin 4-monooxygenase (Photinus pyralis, UniProt P08659); experiment: inhibition of purified Photinus pyralis luciferase – biochemical, luminescence, dose response (AID 1891)
Sequence of Luciferin 4-monooxygenase (P08659 whole entry): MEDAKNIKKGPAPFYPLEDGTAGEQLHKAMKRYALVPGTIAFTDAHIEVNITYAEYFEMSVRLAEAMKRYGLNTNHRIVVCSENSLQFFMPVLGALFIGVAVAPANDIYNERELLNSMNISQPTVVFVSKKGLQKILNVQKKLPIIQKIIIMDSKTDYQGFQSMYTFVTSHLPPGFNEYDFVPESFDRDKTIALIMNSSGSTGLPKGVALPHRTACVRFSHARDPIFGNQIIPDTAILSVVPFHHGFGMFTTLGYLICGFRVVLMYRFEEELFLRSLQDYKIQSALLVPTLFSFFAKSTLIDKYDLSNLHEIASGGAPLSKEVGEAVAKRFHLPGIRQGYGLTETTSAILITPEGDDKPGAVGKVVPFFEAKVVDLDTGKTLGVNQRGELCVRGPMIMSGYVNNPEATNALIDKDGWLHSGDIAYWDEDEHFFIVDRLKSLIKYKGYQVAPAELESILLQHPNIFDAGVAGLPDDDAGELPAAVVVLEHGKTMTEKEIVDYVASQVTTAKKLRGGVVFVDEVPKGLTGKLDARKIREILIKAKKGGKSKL

[9] = target: T2, Cytochrome P450 1A2 (Homo sapiens, UniProt P05177);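 further: PubChem cytochrome P450 panel assay, CYP1A2 panel member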
T2 sequence (P05177 whole entry): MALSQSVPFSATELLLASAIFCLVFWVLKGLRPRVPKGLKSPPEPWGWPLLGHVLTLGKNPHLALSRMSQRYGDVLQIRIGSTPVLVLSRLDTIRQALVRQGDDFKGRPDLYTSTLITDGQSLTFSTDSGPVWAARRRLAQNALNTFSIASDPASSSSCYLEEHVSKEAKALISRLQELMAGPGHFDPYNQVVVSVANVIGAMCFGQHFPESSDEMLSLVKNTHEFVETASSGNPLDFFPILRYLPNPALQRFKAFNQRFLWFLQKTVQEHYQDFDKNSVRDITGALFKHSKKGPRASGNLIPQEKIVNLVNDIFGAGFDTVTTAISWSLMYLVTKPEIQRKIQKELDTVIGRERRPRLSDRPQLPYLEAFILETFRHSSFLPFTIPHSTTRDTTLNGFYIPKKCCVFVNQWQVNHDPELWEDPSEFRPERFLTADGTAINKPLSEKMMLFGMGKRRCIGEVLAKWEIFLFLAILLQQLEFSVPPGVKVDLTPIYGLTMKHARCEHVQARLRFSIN

[10] = target: Cytochrome P450 2C19 (Homo sapiens, UniProt P33261); experiment: Cytochrome panel assay with activity outcomes. Panel member name: p450-cyp2c19 Compounds with AC50 equal or less than 10 uM are considered active; assay type: functional; details: read-out: AC50
Sequence of Cytochrome P450 2C19 (P33261 whole entry): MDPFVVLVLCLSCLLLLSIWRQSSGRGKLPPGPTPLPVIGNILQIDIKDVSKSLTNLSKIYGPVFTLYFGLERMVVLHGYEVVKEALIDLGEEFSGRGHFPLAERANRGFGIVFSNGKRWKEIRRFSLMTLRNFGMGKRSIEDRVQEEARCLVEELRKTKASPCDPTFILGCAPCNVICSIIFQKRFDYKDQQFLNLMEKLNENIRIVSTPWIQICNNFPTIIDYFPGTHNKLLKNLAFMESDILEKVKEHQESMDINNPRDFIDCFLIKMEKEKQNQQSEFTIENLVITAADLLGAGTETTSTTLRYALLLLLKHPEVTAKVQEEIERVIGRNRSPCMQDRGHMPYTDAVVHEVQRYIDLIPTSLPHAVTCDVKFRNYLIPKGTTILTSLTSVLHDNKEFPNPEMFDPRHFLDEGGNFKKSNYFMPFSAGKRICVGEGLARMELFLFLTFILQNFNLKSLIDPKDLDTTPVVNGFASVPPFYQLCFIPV

[11] = tested on: H9c2; experiment: cells; assay type: functional, cell-based; details: Rattus norvegicus, H9c2, Myocardium;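 further: confirmatory concentration-response retest of ultra-high-throughput screening hits for modulation of myocardial damage; cell death induced by hydrogen peroxide oxidative stress; compound pretreatment for 60 min then peroxide exposure for 2 h; potency is for protecting the cells against peroxide damage rather than for killing them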
[12] = target: Cytochrome P450 3A4 (Homo sapiens, UniProt P08684);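 further: CYP3A4 tested as one member of a cytochrome P450 panel screen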
Sequence of Cytochrome P450 3A4 (P08684 whole entry): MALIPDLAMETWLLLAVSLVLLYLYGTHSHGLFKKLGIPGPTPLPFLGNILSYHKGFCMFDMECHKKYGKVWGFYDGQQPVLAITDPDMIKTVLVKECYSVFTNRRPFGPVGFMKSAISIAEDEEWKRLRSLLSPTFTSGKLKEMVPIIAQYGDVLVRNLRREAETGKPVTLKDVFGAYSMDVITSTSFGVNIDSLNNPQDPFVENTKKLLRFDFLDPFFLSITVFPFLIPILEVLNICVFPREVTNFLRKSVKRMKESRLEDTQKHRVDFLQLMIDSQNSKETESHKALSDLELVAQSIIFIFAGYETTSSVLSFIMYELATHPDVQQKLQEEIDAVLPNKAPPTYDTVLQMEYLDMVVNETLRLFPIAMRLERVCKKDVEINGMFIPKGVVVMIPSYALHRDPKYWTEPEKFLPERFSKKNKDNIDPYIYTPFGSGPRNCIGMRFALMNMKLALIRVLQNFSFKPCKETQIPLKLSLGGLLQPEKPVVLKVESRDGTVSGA

[13] = tested on: INS1; experiment: INS-1E survival protection against cytokine death – cell-based, luminescence, retest, dose response (AID 449756); assay type: functional; details: Rattus norvegicus;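 further: cell death triggered by IL-1 beta plus TNF-alpha plus IFN-gamma mixture; protective hits raise ATP signal compared with cytokine alone wells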
[14] = target: T3, Protein skinhead-1 (Caenorhabditis elegans, UniProt P34707); assay type: functional
T3 sequence (P34707 whole entry): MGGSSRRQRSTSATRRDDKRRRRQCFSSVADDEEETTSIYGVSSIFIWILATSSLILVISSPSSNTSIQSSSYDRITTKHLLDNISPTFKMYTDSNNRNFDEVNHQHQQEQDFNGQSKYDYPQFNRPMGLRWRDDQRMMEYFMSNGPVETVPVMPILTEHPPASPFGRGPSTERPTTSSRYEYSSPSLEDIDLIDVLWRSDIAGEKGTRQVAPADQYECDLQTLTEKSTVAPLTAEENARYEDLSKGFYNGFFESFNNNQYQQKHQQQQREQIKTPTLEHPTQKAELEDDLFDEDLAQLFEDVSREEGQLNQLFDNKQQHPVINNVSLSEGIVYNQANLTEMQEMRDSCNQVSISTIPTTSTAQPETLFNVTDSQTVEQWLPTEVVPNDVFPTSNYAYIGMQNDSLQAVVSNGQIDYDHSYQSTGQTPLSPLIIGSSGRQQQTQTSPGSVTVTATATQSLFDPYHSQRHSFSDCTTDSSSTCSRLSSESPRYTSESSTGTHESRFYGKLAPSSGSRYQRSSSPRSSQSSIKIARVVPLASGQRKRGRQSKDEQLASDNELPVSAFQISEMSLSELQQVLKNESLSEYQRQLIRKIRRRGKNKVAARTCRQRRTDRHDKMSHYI

[15] = tested on: SN12K1; experiment: cells; assay type: functional; details: Homo sapiens
[16] = tested on: P388/ADR; experiment: cells; assay type: functional; details: Mus musculus
[17] = tested on: P388; experiment: cells; assay type: functional; details: Mus musculus

Sequence of Cytochrome P450 2C9 (P11712 whole entry): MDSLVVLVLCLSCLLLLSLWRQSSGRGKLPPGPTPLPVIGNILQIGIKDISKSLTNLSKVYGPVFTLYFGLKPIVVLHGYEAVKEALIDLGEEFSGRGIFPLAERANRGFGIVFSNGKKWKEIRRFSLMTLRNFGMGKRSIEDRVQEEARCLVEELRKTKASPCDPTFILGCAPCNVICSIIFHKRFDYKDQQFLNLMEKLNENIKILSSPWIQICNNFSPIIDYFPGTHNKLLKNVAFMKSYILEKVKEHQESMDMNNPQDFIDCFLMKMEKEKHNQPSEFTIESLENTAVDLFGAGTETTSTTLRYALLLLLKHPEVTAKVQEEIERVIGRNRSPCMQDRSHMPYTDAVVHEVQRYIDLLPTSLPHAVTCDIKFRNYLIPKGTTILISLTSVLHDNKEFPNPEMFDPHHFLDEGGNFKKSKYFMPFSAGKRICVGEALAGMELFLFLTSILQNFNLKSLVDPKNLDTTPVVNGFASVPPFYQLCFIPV

In the case of `CCCNC(=O)COC(=O)c1cc2c(=O)n3ccccc3nc2s1`, the IC50 [1] is reported as 39.2 µM (active).
In the case of `Cc1cc2nnc(SCC(=O)OC(C)C)n2c2ccccc12`, the AC50 [2] is reported as “inconclusive”.
For `COc1cc(/C=C(\C#N)C(=O)NCC2CCCO2)c([N+](=O)[O-])cc1OC` (stereo not given), the AC50 [2] was “inconclusive”.
In the case of `Cc1cc(NS(=O)(=O)c2ccc(NC(=O)c3cnc4scc(C)n4c3=O)cc2)nc(C)n1`, the IC50 [3] is reported as 23.1 µM (active).
For `CCOc1ccc(CN(C(=O)c2oc3ccccc3c2C)C2CCS(=O)(=O)C2)cc1` (stereo not given), the EC50 [4] was > 112 µM (not active), the EC50 [5] was > 38 µM (not active) and the EC50 [6] was > 160 µM (inconclusive). The AC50 [7] was 14.1 µM (inconclusive), the EC50 [8] was 28.3 µM (active) and the AC50 [9] was 14.1 µM (inconclusive).
For `CCC(C)NC(=O)NC(=O)N(C1CCCCC1)S(C)(=O)=O` (stereo not given), the AC50 [2] was “inconclusive” and the AC50 [10] was 17.8 µM (inconclusive).
In the case of `CC(C)(C)NC(=O)c1cc(NC(=O)c2cccs2)cc(NC(=O)c2cccs2)c1`, the IC50 [11] is reported as 11.1 µM (active).
For `C[C@H](NC(=O)c1[nH]cnc1C(=O)NCC(=O)OCc1ccccc1)C(=O)OCc1ccccc1`, the IC50 [11] was 19.4 µM (active).
With `COC(=O)c1cc(OC)c(OC)cc1NC(=O)c1ccc(OC)c(OC)c1` the IC50 [11] was > 79 µM (inactive).
With `COc1ccc(S(=O)(=O)N(C)CC(=O)NCc2ccco2)cc1` the AC50 [2] was “inconclusive” and the AC50 [12] was 15.8 µM (inconclusive).
In the case of `Clc1ccc(Cl)c(OCc2cc(-c3ccccc3Cl)on2)c1`, the AC50 [2] is reported as “inconclusive”, the AC50 [10] is reported as 0.891 µM (inconclusive) and the AC50 [9] is reported as 0.282 µM (inconclusive).
With `Cc1ccc(-c2ccc(=O)n(CC(=O)NCCN3CCCCC3C)n2)cc1` (stereo not given) the AC50 [2] was “inconclusive”, the AC50 [10] was 35.5 µM (inconclusive) and the AC50 [12] was 17.8 µM (inconclusive).
In the case of `O=C(OCC(=O)N1CCCCC1)c1cc2ccccc2cc1O`, the IC50 [1] is reported as 5.15 µM (active).
In the case of `NC(=O)c1ccc(Nc2nnc(-c3ccc(O)cc3)c3ccccc23)cc1`, the EC50 [5] is reported as > 38 µM (not active), the EC50 [6] is reported as > 150 µM (inactive) and the IC50 [11] is reported as 15 µM (active).
With `CCOC(=O)Cn1c(=S)[nH]c2c(oc3ccc(Cl)cc32)c1=O` the IC50 [3] was 19.5 µM (active).
In the case of `Cc1ccc(S(=O)(=O)N2CCOCC2)cc1C(=O)Nc1nc(-c2ccccn2)cs1`, the AC50 [13] is reported as 2.19 µM (active) and the IC50 [11] is reported as 11.3 µM (active).
For `COc1ccc(Sc2nc3ccccc3n3c(C(F)(F)F)nnc23)cc1`, the AC50 [2] was “inconclusive”, the AC50 [10] was 35.5 µM (inconclusive) and the AC50 [9] was 3.16 µM (inconclusive).
With `O=C(NCc1cccs1)c1cc(-c2ccc(O)cc2)on1` the IC50 [1] was 45 µM (active).
In the case of `O=S(=O)(Nc1ccc(C(F)(F)F)cc1)c1c[nH]cn1`, the IC50 [3] is reported as 28.3 µM (active) and the IC50 [14] is reported as > 100 µM (inactive).
For `Cc1ccc(-n2cc(-c3ccccc3)c3c(N4CCOCC4)ncnc32)cc1`, the IC50 [11] was > 79 µM (inactive).
For `CSc1nnc(NC(=O)c2cc3ccccc3oc2=O)s1`, the IC50 [11] was > 79 µM (inactive).
In the case of `CCS(=O)(=O)N1CCC(C(=O)NCc2ccccc2OC)CC1`, the AC50 [2] is reported as “inconclusive”.
In the case of `O=C(COC(=O)c1ccc([N+](=O)[O-])o1)Nc1ccc(N2CCOCC2)cc1`, the IC50 [11] is reported as > 79 µM (inactive).
With `O=NN(CCCl)C(=O)N[C@H]1CC[C@H](C(=O)O)CC1` the GI50 [15] was > 100 µM (inactive), the GI50 [16] was 7.1 µM (inactive) and the GI50 [17] was 4.86 µM (inactive).
For `NC(CN(O)N=O)C(=O)O` (stereo not given), the GI50 [15] was 0.792 µM (active), the GI50 [16] was 8.45 µM (inactive) and the GI50 [17] was 16.5 µM (inactive).
In the case of `C=C1CC(OC)(C(O)C(=O)N[C@H]2OCO[C@H]3C2O[C@H](C[C@@H](COC)OC)C(C)(C)C3OC)O[C@H](C)[C@@H]1C` (stereo not given in full), the GI50 [15] is reported as < 0.00482 µM (active), the GI50 [16] is reported as < 0.00482 µM (active) and the GI50 [17] is reported as < 0.00482 µM (active).
With `CN1C(=O)/C(=C/c2ccco2)S/C1=N/c1cccc(C(=O)O)c1` the IC50 [3] was 50.6 µM (active).
With `FC(F)(F)c1ccc(/C=N/N2CCN(Cc3cccc4ccccc34)CC2)cc1` the AC50 [2] was “inconclusive” and the AC50 [10] was 11.2 µM (inconclusive).
For `NC(=O)c1ncn2c1NC(=O)CC2`, the GI50 [15] was > 100 µM (inactive), the GI50 [16] was > 100 µM (inactive) and the GI50 [17] was > 31.6 µM (inactive).
